Experimental findings from US20120207722A1, “Use Of Adipose Tissue Cells For Initiating The Formation Of A Functional Vascular Network” (CENTRE NATIONAL DE LA RECHERCHE SCIENTIFIQUE, priority 2003, published 2012) are described below.

In this experiment the test system is hind limb rendered ischemic. The experiment is described as follows: Hind limb ischemia model, SVF-CULT cells with modified redox state (antimycin and/or PDTC). The note with it: daily i.p. injection (50 μl at 40 nM) after the injection of the SVF-CULT cells. The experiment is classed as in vivo, mouse.

Method: The angiogenic potential of the SVF-CULT cells treated, in vitro, with antimycin (40 nM) and/or pyrrolidine dithiocarbamate (PDTC; 0.5 mM) two days before the injection, was analyzed in the model of the mouse with a hind limb rendered ischemic, as described in Example 1. Furthermore, after the injection of the SVF-CULT cells treated with antimycin alone, by adding antimycin to the culture medium, or not treated, the mice were or were not given a daily i.p. injection of antimycin (50 μl at 40 nM). The mice treated similarly with PDTC alone or in combination with antimycin receive no treatment after the injection of cells.
The angiogenic potential of the nontreated SVF-CULT cells, in mice not treated after the injection of the cells, was analyzed in parallel, by way of comparison. The control group was given an injection of ethanol, under the same conditions.
The neovascularization process was analyzed by microangiography and, optionally, by laser Doppler, 8 days after femoral occlusion. The statistical analysis was carried out by means of an ANOVA-type variance test for comparing each parameter (n=5 for each group). A Bonferroni t test subsequently made it possible to identify the groups causing these differences. A value of P<0.05 is considered to be significant.

For antimycin, the “effect on revascularization when administered directly to the animal” value is on record as “no effect”.
